Experimental data from US8703790B2, “Bis [O-(14-benzoylaconine-8-yl)] esters” (priority 2008, dated 2014).

Columns and labels:
[1] = test system: HCT-15 (colon cancer); assay: In vitro cytotoxicity test (MTT) against human tumour cell line HCT-15; format: cell-based; details: HCT-15, 24 h contact, 48 h re-growth
Protocol: (§1) Human tumour cell lines A549 (lung cancer), HCT-15 (colon cancer) and MCF-7 (breast cancer) have been obtained from the Developmental Therapeutics Program of the National Cancer Institute (Rockville, Md., USA). Cells were routinely grown with RPMI 1640 medium supplemented with 10% foetal calf serum, both obtained from Biochrom AG (Berlin, Germany). They were grown on Petri dishes (Nunc, Denmark) at 37° C. in a humidified atmosphere containing 5% CO2. Cells were replicated every 4 days and the medium changed once in-between.
(§2) Cytotoxicity has been evaluated on exponentially growing cells grown for 24 h in presence of the compounds to be tested. Briefly, 4000 cells were seeded in 96-well plates with 200 μL of complete medium; 24 hours later the medium was supplemented with a series of different concentrations of compounds and the contact maintained for 24 h. Compounds were dissolved in pure water and sterilised using polycarbonate membrane filters of 0.22 μm (Millipore, Molsheim, France). The cells were then allowed to re-grow for 48 hours; viable and metabolically active cells were quantitatively estimated by coloration with the MTT dye (1-(4,5-dimethylthyazol-2-yl)-3,5-diphenylformazan), Sigma-Aldrich Chimie, Saint-Quentin-Fallavier, France). The amount of substance allowing a 50% decrease in cell numbers is indicative of the cytotoxicity and represents the IC50 of compound.

[2] = test system: MCF-7 (breast cancer); assay: In vitro cytotoxicity test (MTT) against human tumour cell line MCF-7; format: cell-based; details: MCF-7, 24 h contact, 48 h re-growth
Protocol: as §1, §2

[3] = test system: MCF-7; assay: Cell cycle arrest, propidium iodide flow cytometry, MCF-7; format: cell-based, human
Protocol: 10^6 Cells of A549, HCT-15 and MCF-7 cell lines have been seeded in Petri dishes with RPMI-1640 medium. 24 h later, SDD has been dissolved in water at a concentration of 20 μM and was directly added to the culture medium. Contact was maintained for 72 h. Then, cells have been detached by trypsinization, collected and rinsed by PBS and counted on hemocytometer. Cells were centrifuged for 5 min at 1500 rpm, then resuspended in a defined volume of PBS to obtain 2.5×10^6 cell/mL. 100 μL of cell suspension was digested to nuclei by trypsin for 10 min. Then, a solution containing trypsin inhibitor and RNAse was added to cell suspension and left for 10 min. Finally, cells were stained by propidium iodide and were analysed by flow-cytometry apparatus. Distribution of cells among the different phases of the cycle was determined by the procedure disclosed in: A detergent-trypsin method for preparation of nuclei for flow cytometric DNA analysis. Vindelov, L.; Christensen, I.; Nissen, N.; Cytometry (1983), 3, 323-327.
• G0G1: cell in the phase of GOG1 • G2M: cells in the phase of G2M • S: cells in the phase of DNA synthesis • Sub G1: apoptotic cells • SUP G2M: diploidic cells

[4] = test system: female Swiss mouse; assay: Acute systemic toxicity, preliminary test, intravenous; format: in vivo; details: for death of the animal, time after the test item administration: 1 female Swiss mouse
Protocol: The study has been performed to assess the acute systemic toxicity of SDD in the mouse preliminary test.
The SDD was administered, by intravenous route: • in a first step to 1 female Swiss mouse at the single dose of 95 mg/kg b.w., • in a second step to 1 female Swiss mouse at the single dose of 60 mg/kg b.w., • in a third step to 1 female Swiss mouse at the single dose of 55 mg/kg b.w., and • in a fourth step to a group of 2 female Swiss mice at the single dose of 50 mg/kg b.w.

[5] = MCF-7, SDD 20 μM, 72 h, percentage of total cell population
[6] = 50 mg/kg b.w. iv, 1 hour after administration

CCN1C[C@]2(COC)[C@H](O)C[C@H](OC)[C@]34C1[C@H]([C@H](OC)[C@H]23)[C@]1(OC(=O)CCCCCCC(=O)O[C@]23[C@H]5[C@@H](OC(=O)c6ccccc6)[C@](O)(C[C@H]5[C@@]56C7[C@@H]2[C@H](OC)[C@@H]5[C@](COC)(CN7CC)[C@H](O)C[C@@H]6OC)[C@@H](OC)[C@@H]3O)[C@H]2[C@@H](OC(=O)c3ccccc3)[C@](O)(C[C@H]24)[C@@H](OC)[C@@H]1O [SDD, bis[O-(14-benzoylaconine-8-yl)]-suberate]
IC50 [1]: 3.7 µM | IC50 [2]: 3.7 µM | accumulation of cells in the G2M and S phases ([3]; MCF-7, 20 μM): moderate accumulation | ALL % [3, 5]: 100% | G0G1 % [3, 5]: 58.73% | G2M % [3, 5]: 16.96% | S % [3, 5]: 21.44% | SUP G2M % (diploidic cells) [3, 5]: 1.72% | SubG1 % (apoptotic cells) [3, 5]: 2.05% | cell distribution in the cycle ([3]; MCF-7, SDD concentration 5 times higher than IC50): not altered | Percentage of survival cells, G0G1 % ([3]; MCF-7, SDD, survival cells): 60.46% | Percentage of survival cells, G2M % ([3]; MCF-7, SDD, survival cells): 17.46% | Percentage of survival cells, S % ([3]; MCF-7, SDD, survival cells): 22.08% | decrease of the righting reflex (animals affected) [4, 6]: 1/2 | decrease of the spontaneous activity (animals affected) [4, 6]: 2/2 | local finding at the tails ([4]; 50 mg/kg b.w. iv, first day to fourteenth day): oedema at the level of the tails | mortality ([4]; 50 mg/kg b.w. single dose iv, 2 female Swiss mice): No mortality | macroscopical examination ([4]; 50 mg/kg iv, end of the study): did not reveal any treatment-related changes | death of the animal, time after the test item administration ([4]; 55 mg/kg b.w. single dose iv): 24 h | death of the animal, time after the test item administration ([4]; 60 mg/kg b.w. single dose iv): 3 h | death of the animal, time after the test item administration ([4]; 95 mg/kg b.w. single dose iv): immediately | body weight evolution ([4]; preliminary test, throughout the study): remained normal
